“Also recorded” adds a separate entry of the source. Positions of bridges follow the written chain, without caps; N, C: chain ends. Non-standard residues stand in square brackets, D forms with d. Residues, ends and D or L forms follow the SMILES beside them. *: point of attachment. Ileψ(thiazoline)Cys = CC[C@H](C)[C@H](N)C1=N[C@H](C(=O)*)CS1; dOrn = NCCC[C@@H](N)C(=O)O
System: sigE promoter
Test: sigE promoter bioassay: sigEp-neo fusion (pIJ6880) in M600, paper discs on MMT medium with lethal kanamycin, halo of kanamycin-resistant growth
Format: cell-based, Streptomyces coelicolor A3(2)
Details: for induction of the sigE promoter (halo of kanamycin-resistant growth), in words: M600 carrying pIJ6880, MMT medium, kanamycin 100 μg ml^−1, paper disc; for potency as inducer of the sigE promoter, in words: M600 carrying pIJ6880, kanamycin 100 μg ml^−1, paper disc
Method: To see if the sigE promoter could be induced by control-antibiotics known to target the cell envelope, spores of M600 carrying pIJ6880 were spread on MMT medium carrying a lethal concentration of kanamycin (100 μg ml^−1) and potential inducers were applied on paper discs to the freshly spread plates.
In order to perform the assay of the invention,spores of the host microorganism, for example, M600 carrying pIJ6880, are spread on MMT medium carrying a lethal concentration of kanamycin (100 μg ml^−1)at concentration of approximately 5×10^6/12 cm^2 plate. Test compound is applied on paper discs to a number of freshly spread plates in parallel using a different concentration of the test compound in each plate.

Teicoplanin
induction of the sigE promoter (halo of kanamycin-resistant growth), in words: induced a halo of kanamycin-resistant growth; also recorded: found to induce the sigE promoter
potency as inducer of the sigE promoter, in words: particularly potent inducers

CC1=C(C(=O)O)N2C(=O)[C@@H](NC(=O)[C@H](N)C3=CCC=CC3)[C@H]2SC1 [Cepharadine]
induction of the sigE promoter (halo of kanamycin-resistant growth), in words: found to induce the sigE promoter

CC[C@H](C)[C@H](N)C1=N[C@H](C(=O)N[C@@H](CC(C)C)C(=O)N[C@H](CCC(=O)O)C(=O)N[C@H](C(=O)N[C@H]2CCCCNC(=O)[C@H](CC(N)=O)NC(=O)[C@@H](CC(=O)O)NC(=O)[C@H](Cc3cnc[nH]3)NC(=O)[C@@H](Cc3ccccc3)NC(=O)[C@H]([C@@H](C)CC)NC(=O)[C@@H](CCCN)NC2=O)[C@@H](C)CC)CS1 [Bacitracin] ({Ileψ(thiazoline)Cys}-L[dE]IK[dOrn]I[dF]H[dD]N; lactam 4-C)
induction of the sigE promoter (halo of kanamycin-resistant growth), in words: found to induce the sigE promoter
potency as inducer of the sigE promoter, in words: particularly potent inducers

lysozyme
induction of the sigE promoter (halo of kanamycin-resistant growth), in words: acted as an inducer

CC1=C(C(=O)O)N2C(=O)[C@@H](NC(=O)[C@H](N)c3ccccc3)[C@H]2SC1 [Cephalexin]
induction of the sigE promoter (halo of kanamycin-resistant growth), in words: found to induce the sigE promoter

C=C(NC(=O)C(=C)NC(=O)c1csc(C2=N[C@@H]3c4csc(n4)[C@H]4NC(=O)c5csc(n5)[C@H]([C@](C)(O)[C@@H](C)O)NC(=O)[C@H]5CSC(=N5)/C(=C/C)NC(=O)[C@H]([C@@H](C)O)NC(=O)c5csc(n5)[C@]3(CC2)NC(=O)[C@H](C)NC(=O)C(=C)NC(=O)[C@H](C)NC(=O)[C@H]([C@@H](C)CC)N[C@@H]2C=Cc3c([C@H](C)O)cc(nc3[C@H]2O)C(=O)O[C@@H]4C)n1)C(N)=O [Thiostrepton]
induction of the sigE promoter (halo of kanamycin-resistant growth), in words: do not induce a halo

CC1(C)S[C@@H]2[C@H](NC(=O)[C@H](C(=O)O)c3ccsc3)C(=O)N2[C@H]1C(=O)O [Ticarcillin]
induction of the sigE promoter (halo of kanamycin-resistant growth), in words: induced a halo of kanamycin-resistant growth; also recorded: found to induce the sigE promoter

CN[C@H](CC(C)C)C(=O)N[C@H]1C(=O)N[C@@H](CC(N)=O)C(=O)N[C@H]2C(=O)N[C@H]3C(=O)N[C@H](C(=O)N[C@H](C(=O)O)c4cc(O)cc(O)c4-c4cc3ccc4O)[C@H](O)c3ccc(c(Cl)c3)Oc3cc2cc(c3O[C@@H]2O[C@H](CO)[C@@H](O)[C@H](O)[C@H]2O[C@H]2C[C@](C)(N)[C@H](O)[C@H](C)O2)Oc2ccc(cc2Cl)[C@H]1O [Vancomycin]
induction of the sigE promoter (halo of kanamycin-resistant growth), in words: induced a halo of kanamycin-resistant growth; also recorded: found to induce the sigE promoter
potency as inducer of the sigE promoter, in words: particularly potent inducers
signs of toxicity to the reporter strain while acting as inducer (halo grows to the edge of the disc) (paper disc, FIG. 2): without showing any signs of toxicity

CC1(C)S[C@@H]2[C@H](NC(=O)Cc3ccccc3)C(=O)N2[C@H]1C(=O)O [Penicillin G]
induction of the sigE promoter (halo of kanamycin-resistant growth), in words: induced a halo of kanamycin-resistant growth; also recorded: found to induce the sigE promoter

CC1(C)S[C@@H]2[C@H](NC(=O)[C@H](N)c3ccccc3)C(=O)N2[C@H]1C(=O)O [Ampicillin]
induction of the sigE promoter (halo of kanamycin-resistant growth), in words: found to induce the sigE promoter

CO[C@@H]1[C@@H](OC(N)=O)[C@@H](O)[C@H](Oc2ccc3c(O)c(NC(=O)c4ccc(O)c(CC=C(C)C)c4)c(=O)oc3c2C)OC1(C)C [Novobiocin]
induction of the sigE promoter (halo of kanamycin-resistant growth), in words: do not induce a halo

[H]/N=C(/N)N[C@H]1[C@H](O)[C@@H](O)[C@H](O[C@@H]2O[C@@H](C)[C@](O)(C=O)[C@H]2O[C@@H]2O[C@@H](CO)[C@H](O)[C@@H](O)[C@@H]2NC)[C@@H](N/C(N)=N\[H])[C@@H]1O [Streptomycin]
induction of the sigE promoter (halo of kanamycin-resistant growth), in words: do not induce a halo

Ristocetin
induction of the sigE promoter (halo of kanamycin-resistant growth), in words: induced a halo of kanamycin-resistant growth; also recorded: found to induce the sigE promoter
potency as inducer of the sigE promoter, in words: particularly potent inducers
amount giving a positive reaction in the bioassay (initial assessment of sensitivity) (sigE promoter bioassay): 75 ng

CC1(C)S[C@@H]2[C@H](NC(=O)[C@H](N)c3ccc(O)cc3)C(=O)N2[C@H]1C(=O)O [Amoxycillin]
induction of the sigE promoter (halo of kanamycin-resistant growth), in words: induced a halo of kanamycin-resistant growth

CC1=C(C(=O)O)N2C(=O)[C@@H](NC(=O)[C@H](N)c3ccc(O)cc3)[C@H]2SC1 [Cefadroxil]
induction of the sigE promoter (halo of kanamycin-resistant growth), in words: found to induce the sigE promoter

Cc1onc(-c2ccccc2)c1C(=O)N[C@@H]1C(=O)N2[C@@H]1SC(C)(C)[C@@H]2C(=O)O [oxacillin]
induction of the sigE promoter (halo of kanamycin-resistant growth), in words: found to induce the sigE promoter

N[C@@H](C(=O)N[C@@H]1C(=O)N2C(C(=O)O)=C(Cl)CS[C@H]12)c1ccccc1 [Cefaclor]
induction of the sigE promoter (halo of kanamycin-resistant growth), in words: found to induce the sigE promoter
